In ChEMBL document CHEMBL4177712, “AMP and adenosine are both ligands for adenosine 2B receptor signaling” (Bioorg Med Chem Lett, 2018):
Calls of active or inactive are those of the source. The rule behind the calls is not given here.

Assays:
[1] = biological target: T1, Adenosine receptor A2b (Homo sapiens) (UniProt P29275); assay: Agonist activity at human A2B receptor expressed in CHOK1 cells expressing ADORA2B-CRE-bla assessed as induction of cAMP accumulation by FRET assay; type: functional, cell-based
T1 sequence (whole entry): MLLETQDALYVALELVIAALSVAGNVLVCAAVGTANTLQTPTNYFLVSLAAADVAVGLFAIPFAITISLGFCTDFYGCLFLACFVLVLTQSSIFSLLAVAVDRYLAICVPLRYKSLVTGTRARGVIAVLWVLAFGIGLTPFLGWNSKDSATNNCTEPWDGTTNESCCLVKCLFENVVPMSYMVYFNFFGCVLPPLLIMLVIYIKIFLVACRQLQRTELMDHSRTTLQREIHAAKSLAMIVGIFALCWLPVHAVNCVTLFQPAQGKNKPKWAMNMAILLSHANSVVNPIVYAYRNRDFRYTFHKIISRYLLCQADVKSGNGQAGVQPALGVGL

[2] = biological target: T1, Adenosine receptor A2b (Homo sapiens); assay: Agonist activity at human A2B receptor expressed in CHO cells assessed as induction of calcium mobilization by Fluo-4 dye based fluorescence assay; type: functional, cell-based

Compound | Activity [1] | Activity [2]
Nc1ncnc2c1ncn2[C@H]1O[C@H](COP(O)(O)=S)[C@@H](O)[C@H]1O | inactive | Dose-dependent effect
Nc1ncnc2c1ncn2[C@@H]1O[C@H](CO)[C@@H](O)[C@H]1O |  | Active
